In the supplement of paper PMC13380429:

Tests used:
Conditions in all cases: 72 h
Vero E6 [1] = assay: relative viability EC50 (midpoint between 100% and the lowest measured viability); higher = less toxic
U2OS [2] = assay: as above
Calu-3 [3] = assay: as above
HepG2 [4] = assay: as above
Caco-2 [5] = assay: as above
Vero E6 [6] = assay: drug sensitivity score (DSS) for viability; higher = more toxic; extreme values may be limits of the assay
U2OS [7] = assay: as above
Calu-3 [8] = assay: as above
HepG2 [9] = assay: as above
Caco-2 [10] = assay: as above
Vero E6 [11] = assay: cell viability relative to DMSO; higher = less toxic
U2OS [12] = assay: as above
Calu-3 [13] = assay: as above
HepG2 [14] = assay: as above
Caco-2 [15] = assay: as above

| SMILES | relative viability EC50 (Vero E6 [1]) [µM] | relative viability EC50 (U2OS [2]) [µM] | relative viability EC50 (Calu-3 [3]) [µM] | relative viability EC50 (HepG2 [4]) [µM] | relative viability EC50 (Caco-2 [5]) [µM] | drug sensitivity score (Vero E6 [6]) | drug sensitivity score (U2OS [7]) | drug sensitivity score (Calu-3 [8]) | drug sensitivity score (HepG2 [9]) | drug sensitivity score (Caco-2 [10]) | cell viability (Vero E6 [11]; 1 nM) [%] | cell viability (Vero E6 [11]; 10 nM) [%] | cell viability (Vero E6 [11]; 100 nM) [%] | cell viability (Vero E6 [11]; 1000 nM) [%] | cell viability (Vero E6 [11]; 10000 nM) [%] | cell viability (U2OS [12]; 1 nM) [%] | cell viability (U2OS [12]; 10 nM) [%] | cell viability (U2OS [12]; 100 nM) [%] | cell viability (U2OS [12]; 1000 nM) [%] | cell viability (U2OS [12]; 10000 nM) [%] | cell viability (Calu-3 [13]; 1 nM) [%] | cell viability (Calu-3 [13]; 10 nM) [%] | cell viability (Calu-3 [13]; 100 nM) [%] | cell viability (Calu-3 [13]; 1000 nM) [%] | cell viability (Calu-3 [13]; 10000 nM) [%] | cell viability (HepG2 [14]; 1 nM) [%] | cell viability (HepG2 [14]; 10 nM) [%] | cell viability (HepG2 [14]; 100 nM) [%] | cell viability (HepG2 [14]; 1000 nM) [%] | cell viability (HepG2 [14]; 10000 nM) [%] | cell viability (Caco-2 [15]; 1 nM) [%] | cell viability (Caco-2 [15]; 10 nM) [%] | cell viability (Caco-2 [15]; 100 nM) [%] | cell viability (Caco-2 [15]; 1000 nM) [%] | cell viability (Caco-2 [15]; 10000 nM) [%] |
| --- | --- | --- | --- | --- | --- | --- | --- | --- | --- | --- | --- | --- | --- | --- | --- | --- | --- | --- | --- | --- | --- | --- | --- | --- | --- | --- | --- | --- | --- | --- | --- | --- | --- | --- | --- |
| Nc1ccc(/N=N/c2ccccc2)c(N)n1 [phenazopyridine] | > 10 | > 10 | > 10 | > 10 | > 10 | 0.3 | 0 | 0 | 0 | 0 | 109 | 88.6 | 102 | 102 | 82.7 | 94 | 98.4 | 95.7 | 99.2 | 103 | 91.9 | 102 | 88.1 | 99.1 | 95.8 | 91.1 | 91.8 | 105 | 89.4 | 100 | 85.4 | 102 | 97 | 99.8 | 94 |
| CCCn1c(=O)[nH]c(=O)c2nc[nH]c21 [enprofylline] | > 10 | > 10 | > 10 | > 10 | > 10 | 0 | 0 | 0 | 0.2 | 0 | 97.6 | 98.3 | 91.1 | 94.7 | 94.5 | 104 | 99.1 | 98.9 | 97.6 | 104 | 105 | 96.9 | 95.6 | 108 | 109 | 97.4 | 110 | 100 | 95.9 | 88.2 | 104 | 100 | 99.5 | 104 | 95.5 |
| CC(C)(C)NCC(O)CSc1nc(-c2ccc(C(N)=O)s2)cs1 (stereo not given) [arotinolol] | > 10 | > 10 | > 10 | > 10 | > 10 | 0 | 0 | 0 | 0 | 0 | 103 | 98.1 | 106 | 108 | 98.4 | 96 | 100 | 99.9 | 102 | 94.6 | 102 | 98.4 | 107 | 94.1 | 99.9 | 88.7 | 96.9 | 100 | 92.8 | 104 | 105 | 104 | 90.6 | 106 | 107 |
| Cc1cc(O)c(-c2ccc([C@@H](C)CN)cc2)c2c1[nH]c(=O)c1sccc12 [OTS514] | 1.95 | 0.291 | 0.16 | 0.0917 | 0.21 | 7.6 | 18.2 | 16.7 | 24.2 | 14.9 | 102 | 98.8 | 93.2 | 85.4 | 6 | 96.3 | 97.8 | 96.6 | 1.1 | 1.1 | 105 | 92.5 | 81.7 | 23.9 | 38.8 | 109 | 99.4 | 46.3 | 3.1 | 1.1 | 98.6 | 87.1 | 83.6 | 29.9 | 25.5 |
| COc1ccc(CCNCc2ccc(OCc3ccc(Cl)nc3)c(OC)c2)cc1OC [SBE-13] | > 10 | > 10 | > 10 | > 10 | > 10 | 0 | 0 | 0 | 0 | 0 | 107 | 104 | 101 | 98.5 | 97.3 | 98 | 103 | 102 | 98.8 | 95.2 | 108 | 97.8 | 93.3 | 99.1 | 93.8 | 107 | 105 | 102 | 96.1 | 94 | 90.3 | 94.3 | 92.1 | 98.2 | 95.3 |
| CCc1cn([C@H]2C[C@H](O)[C@@H](CO)O2)c(=O)[nH]c1=O [edoxudine] | > 10 | > 10 | > 10 | > 10 | > 10 | 0 | 0 | 0 | 0 | 0 | 102 | 101 | 98 | 96 | 92.4 | 102 | 101 | 98.8 | 98.8 | 95.3 | 102 | 95.6 | 101 | 97 | 99.1 | 93.8 | 88.3 | 98.6 | 87.4 | 85.8 | 89.6 | 93.6 | 99.9 | 88.2 | 99.5 |
| OC[C@H]1O[C@@H](O[C@@H]2[C@H](O)[C@@H](O)[C@H](O[C@H]3[C@H](O)[C@@H](O)C(O)O[C@@H]3CO)O[C@@H]2CO)[C@H](O)[C@@H](O)[C@H]1O (stereo not given in full) [4-galactosyllactose] | > 10 | > 10 | > 10 | > 10 | > 10 | 0 | 0 | 0 | 0 | 2.5 | 97.3 | 105 | 103 | 101 | 99.2 | 103 | 96.4 | 102 | 94.8 | 101 | 102 | 99.3 | 98.2 | 93.3 | 101 | 111 | 113 | 101 | 102 | 98.3 | 118 | 96.6 | 123 | 78.8 | 91.7 |
